Experimental data published in ChEMBL document CHEMBL1201861, “Genomics of Drug Sensitity in Cancer screening data, Wellcome Trust Sanger Institute”.

Experiments:
Assay in all cases: cells
Type in all cases: functional, cell-based, Homo sapiens
HuO9 = conditions: Homo sapiens, HuO9;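 further: growth inhibition of HuO9 cells, read out with a cell viability assay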
Description: SANGER: Inhibition of human HuO9 cell growth in a cell viability assay.

IGR-1 = conditions: Homo sapiens, IGR-1;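 further: growth inhibition of human IGR-1 cells, read out with a cell viability assay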
Description: SANGER: Inhibition of human IGR-1 cell growth in a cell viability assay.

CAL-120 = conditions: Homo sapiens, CAL-120;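 further: cell growth inhibition, read out as cell viability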
Description: SANGER: Inhibition of human CAL-120 cell growth in a cell viability assay.

HOP-92 = conditions: Homo sapiens, HOP-92;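 further: cell viability readout, with IC50 reflecting inhibition of HOP-92 cell growth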
Description: SANGER: Inhibition of human HOP-92 cell growth in a cell viability assay.

EGI-1 = conditions: Homo sapiens, EGI-1;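 further: cell viability readout used to gauge growth inhibition of EGI-1 cells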
Description: SANGER: Inhibition of human EGI-1 cell growth in a cell viability assay.

MCF7 = conditions: Homo sapiens, MCF7;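 further: growth inhibition of human MCF7 cells, read out with a cell viability assay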
Description: SANGER: Inhibition of human MCF7 cell growth in a cell viability assay.

769-P = conditions: Homo sapiens, 769-P
Description: SANGER: Inhibition of human 769-P cell growth in a cell viability assay.

A549 = conditions: Homo sapiens, A549;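 further: growth inhibition of A549 cells, read out with a cell viability assay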
Description: SANGER: Inhibition of human A549 cell growth in a cell viability assay.

JEG-3 = conditions: Homo sapiens, JEG-3;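 further: growth inhibition of human JEG-3 cells, read out with a cell viability assay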
Description: SANGER: Inhibition of human JEG-3 cell growth in a cell viability assay.

MG-63 = conditions: Homo sapiens, MG-63;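 further: growth inhibition of human MG-63 cells, read out with a cell viability assay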
Description: SANGER: Inhibition of human MG-63 cell growth in a cell viability assay.

BFTC-905 = conditions: Homo sapiens, BFTC-905
Description: SANGER: Inhibition of human BFTC-905 cell growth in a cell viability assay.

KYSE-140 = conditions: Homo sapiens, KYSE-140;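 further: cell viability assay measuring growth inhibition in human KYSE-140 cells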
Description: SANGER: Inhibition of human KYSE-140 cell growth in a cell viability assay.

PA-1 = conditions: Homo sapiens, PA-1;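 further: IC50 for suppression of PA-1 cell proliferation, determined with a cell viability read-out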
Description: SANGER: Inhibition of human PA-1 cell growth in a cell viability assay.

HCC1937 = conditions: Homo sapiens, HCC1937;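 further: growth inhibition measured with a cell viability read-out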
Description: SANGER: Inhibition of human HCC1937 cell growth in a cell viability assay.

NCI-H2228 = conditions: Homo sapiens, NCI-H2228;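 further: growth inhibition of human NCI-H2228 cells, read out by a cell viability assay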
Description: SANGER: Inhibition of human NCI-H2228 cell growth in a cell viability assay.

OC-314 = conditions: Homo sapiens, OC-314
Description: SANGER: Inhibition of human OC-314 cell growth in a cell viability assay.

COLO-741 = conditions: Homo sapiens, COLO-741
Description: SANGER: Inhibition of human COLO-741 cell growth in a cell viability assay.

A2058 = conditions: Homo sapiens, A2058;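 further: reduction of A2058 cell growth, read out with a viability assay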
Description: SANGER: Inhibition of human A2058 cell growth in a cell viability assay.

NCI-H1792 = conditions: Homo sapiens, NCI-H1792;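 further: growth inhibition of human NCI-H1792 cells, read out as cell viability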
Description: SANGER: Inhibition of human NCI-H1792 cell growth in a cell viability assay.

NCI-H2009 = conditions: Homo sapiens, NCI-H2009;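 further: cell viability assay measuring inhibition of NCI-H2009 cell growth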
Description: SANGER: Inhibition of human NCI-H2009 cell growth in a cell viability assay.

FaDu = conditions: Homo sapiens, FaDu;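 further: cell viability readout of growth inhibition in FaDu cells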
Description: SANGER: Inhibition of human FADU cell growth in a cell viability assay.

HCC1419 = conditions: Homo sapiens, HCC1419;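 further: growth inhibition of human HCC1419 cells, read out as cell viability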
Description: SANGER: Inhibition of human HCC1419 cell growth in a cell viability assay.

SK-OV-3 = conditions: Homo sapiens, SK-OV-3;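 further: growth inhibition of SK-OV-3 human cells, read out with a cell viability assay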
Description: SANGER: Inhibition of human SK-OV-3 cell growth in a cell viability assay.

HMV-2 cell line = conditions: Homo sapiens, HMV-2;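 further: growth inhibition of HMV-II cells, read out with a cell viability assay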
Description: SANGER: Inhibition of human HMV-II cell growth in a cell viability assay.

BEN = conditions: Homo sapiens, BEN;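 further: growth inhibition of the BEN cell line, read out with a cell viability assay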
Description: SANGER: Inhibition of human BEN cell growth in a cell viability assay.

NUGC-3 = conditions: Homo sapiens, NUGC-3;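 further: growth inhibition of human NUGC-3 cells, read out with a cell viability assay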
Description: SANGER: Inhibition of human NUGC-3 cell growth in a cell viability assay.

NCI-H460 = conditions: Homo sapiens, NCI-H460;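 further: cell viability assay scoring growth inhibition of human NCI-H460 cells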
Description: SANGER: Inhibition of human NCI-H460 cell growth in a cell viability assay.

MC-IXC = conditions: Homo sapiens, MC-IXC;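 further: growth inhibition of MC-IXC cells, read out with a cell viability assay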
Description: SANGER: Inhibition of human MC-IXC cell growth in a cell viability assay.

PANC-03-27 = conditions: Homo sapiens, PANC-03-27
Description: SANGER: Inhibition of human PANC-03-27 cell growth in a cell viability assay.

T-24 = conditions: Homo sapiens, T-24;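 further: growth inhibition of T-24 cells, read out with a cell viability assay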
Description: SANGER: Inhibition of human T-24 cell growth in a cell viability assay.

TYK-nu = conditions: Homo sapiens, TYK-nu;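 further: growth inhibition of human TYK-nu cells, read out by a cell viability assay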
Description: SANGER: Inhibition of human TYK-nu cell growth in a cell viability assay.

A-431 = conditions: Homo sapiens, A-431;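 further: growth inhibition of A-431 cells, determined with a cell viability read-out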
Description: SANGER: Inhibition of human A431 cell growth in a cell viability assay.

CAL-39 = conditions: Homo sapiens, CAL-39;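 further: cell viability assay measuring growth inhibition of CAL-39 cells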
Description: SANGER: Inhibition of human CAL-39 cell growth in a cell viability assay.

SW1573 = conditions: Homo sapiens, SW1573;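 further: growth inhibition of SW1573 cells, read out with a cell viability assay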
Description: SANGER: Inhibition of human SW1573 cell growth in a cell viability assay.

MDA-MB-453 = conditions: Homo sapiens, MDA-MB-453
Description: SANGER: Inhibition of human MDA-MB-453 cell growth in a cell viability assay.

DU-145 = conditions: Homo sapiens, DU-145
Description: SANGER: Inhibition of human DU-145 cell growth in a cell viability assay.

RVH-421 = conditions: Homo sapiens, RVH-421
Description: SANGER: Inhibition of human RVH-421 cell growth in a cell viability assay.

639-V = conditions: Homo sapiens, 639-V;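 further: growth inhibition of 639-V cells, read out with a cell viability assay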
Description: SANGER: Inhibition of human 639-V cell growth in a cell viability assay.

SW1990 = conditions: Homo sapiens, SW1990;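 further: cell growth inhibition determined with a viability assay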
Description: SANGER: Inhibition of human SW1990 cell growth in a cell viability assay.

UO-31 = conditions: Homo sapiens, UO-31;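 further: cell viability assay measuring inhibition of cell growth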
Description: SANGER: Inhibition of human U031 cell growth in a cell viability assay.

Structure (SMILES) | IC50 (HuO9) [nM] | IC50 (IGR-1) [nM] | IC50 (CAL-120) [nM] | IC50 (HOP-92) [nM] | IC50 (EGI-1) [nM] | IC50 (MCF7) [nM] | IC50 (769-P) [nM] | IC50 (A549) [nM] | IC50 (JEG-3) [nM] | IC50 (MG-63) [nM] | IC50 (BFTC-905) [nM] | IC50 (KYSE-140) [nM] | IC50 (PA-1) [nM] | IC50 (HCC1937) [nM] | IC50 (NCI-H2228) [nM] | IC50 (OC-314) [nM] | IC50 (COLO-741) [nM] | IC50 (A2058) [nM] | IC50 (NCI-H1792) [nM] | IC50 (NCI-H2009) [nM] | also measured
CC(C)c1ccccc1Cc1cc(C(=O)Nc2ccc(S(=O)(=O)c3ccccc3C(C)(C)C)cc2)c(O)c(O)c1O | 727 | 301 | 479 | 358 | 1250 | 337 | 137 | 14.1 | 736 | 112 | 708 | 186 | 134 | 1640 | 662 | 210 | 1370 | 367 | 690 | 245 | IC50 (FaDu): 526 nM; IC50 (HCC1419): 918 nM; IC50 (SK-OV-3): 527 nM; IC50 (HMV-2 cell line): 309 nM; IC50 (BEN): 7410 nM; IC50 (NUGC-3): 1150 nM; IC50 (NCI-H460): 306 nM; IC50 (MC-IXC): 75.3 nM; IC50 (PANC-03-27): 474 nM; IC50 (T-24): 295 nM; IC50 (TYK-nu): 324 nM; IC50 (A-431): 1470 nM; IC50 (CAL-39): 341 nM; IC50 (SW1573): 240 nM; IC50 (MDA-MB-453): 152 nM; IC50 (DU-145): 52.1 nM; IC50 (RVH-421): 253 nM; IC50 (639-V): 521 nM; IC50 (SW1990): 1670 nM; IC50 (UO-31): 184 nM
CO[C@H]1C[C@@H]2CC[C@@H](C)[C@@](O)(O2)C(=O)C(=O)N2CCCC[C@H]2C(=O)O[C@H]([C@H](C)C[C@@H]2CC[C@@H](OC(=O)C(C)(CO)CO)[C@H](OC)C2)CC(=O)[C@H](C)/C=C(\C)[C@@H](O)[C@@H](OC)C(=O)[C@H](C)C[C@H](C)/C=C/C=C/C=C/1C [TEMSIROLIMUS] | 177 | > 200 | > 200 | > 200 | 22 | > 200 | > 200 | 20.2 | > 200 | 134 | > 200 | 156 | 1.47 | > 200 | > 200 | 17.9 | > 200 | 26.6 | > 200 | > 200 | IC50 (FaDu): > 200 nM; IC50 (HCC1419): 25.8 nM; IC50 (SK-OV-3): > 200 nM; IC50 (HMV-2 cell line): > 200 nM; IC50 (BEN): 31.5 nM; IC50 (NUGC-3): 23.5 nM; IC50 (NCI-H460): > 200 nM; IC50 (MC-IXC): > 200 nM; IC50 (PANC-03-27): > 200 nM; IC50 (T-24): 13.9 nM; IC50 (TYK-nu): 0.778 nM; IC50 (A-431): > 200 nM; IC50 (CAL-39): 40.1 nM; IC50 (SW1573): > 200 nM; IC50 (MDA-MB-453): > 200 nM; IC50 (DU-145): > 200 nM; IC50 (RVH-421): 187 nM; IC50 (639-V): > 200 nM; IC50 (SW1990): > 200 nM; IC50 (UO-31): > 200 nM
Nc1cccc2c1CN(C1CCC(=O)NC1=O)C2=O (stereo not given) [LENALIDOMIDE] | > 5000 | > 5000 | > 5000 | > 5000 | > 5000 | > 5000 | > 5000 | > 5000 | > 5000 | > 5000 | > 5000 | > 5000 | > 5000 | > 5000 | > 5000 | > 5000 | > 5000 | > 5000 | > 5000 | > 5000 | IC50 (FaDu): > 5000 nM; IC50 (HCC1419): > 5000 nM; IC50 (SK-OV-3): > 5000 nM; IC50 (HMV-2 cell line): > 5000 nM; IC50 (BEN): > 5000 nM; IC50 (NUGC-3): > 5000 nM; IC50 (NCI-H460): > 5000 nM; IC50 (MC-IXC): > 5000 nM; IC50 (PANC-03-27): > 5000 nM; IC50 (T-24): > 5000 nM; IC50 (TYK-nu): > 5000 nM; IC50 (A-431): > 5000 nM; IC50 (CAL-39): > 5000 nM; IC50 (SW1573): > 5000 nM; IC50 (MDA-MB-453): > 5000 nM; IC50 (DU-145): > 5000 nM; IC50 (RVH-421): > 5000 nM; IC50 (639-V): > 5000 nM; IC50 (SW1990): > 5000 nM; IC50 (UO-31): > 5000 nM
